The text below walks through data of patent US20160081309A1, “FRUCTOBACILLUS AS A PROBIOTIC FOR HONEYBEES” (Indiana University Research & Technology Corporation, priority 2014, published 2016).

For one test, the system named is Fructobacillus sp. Put plainly: Antibiotic sensitivity test, soft agar overlay with antibiotic discs. As to conditions: Fructobacillus soft MRS agar overlay, disc content 5-30 mcg as given per antibiotic; for Zone of Inhibition: BBL Sensi-Disc. The format is cell-based. On the procedure: Evolutionary analyses were conducted in MEGA6 using the 16S rRNA gene sequences and using a Maximum Likelihood method based on the General Time Reversible Model with a gamma distribution, invariable sites and 100 bootstrap replicates (Tamura et al. (2013) Mol Biol Evol, 30:2725-2729). For antibiotic sensitivity tests, overnight cultures of Fructobacillus sp. were mixed with soft MRS agar and overlayed onto MRS plates onto which an antibiotic impregnated disc had been placed. Diameters of zones of inhibition were measured around each antibiotic disc using a ruler. Antibiotics used were BBL Sensi-Disc tetracycline 30 mcg, ampicillin with sulbactam 20 mcg, rifampin 5 mcg, ciprofloxacin 5 mcg, and vancomycin 30 mcg.
Honey bees are commonly prophylactically treated with oxytetracycline for the prevention of foulbrood diseases caused by the bacteria Melissococcus plutonius and Paenibacillus larvae. […] The bacterial strain's resistance to antibiotics was determined, as treatment might alter the abundance of Fructobacillus in the hive. Using soft agar overlays, Fructobacillus cultures were exposed to five different antibiotics (tetracycline, ampicillin (with sulbactam), rifampicin, ciprofloxacin, and vancomycin), and the resulting zones of inhibition were measured (Table 3). […] These two antibiotics are commonly used in agriculture.

The subject of the next test is Fructobacillus FJL. In words: Carbon source utilization assay (Biolog MT2 plates). The format is cell-based. The note with it: 2% carbohydrate, Biolog MT2, 30° C. aerobic; versus water-only controls, unpaired t-test p≦0.001. On the procedure: The same Fructobacillus isolate as used for co-culture assays was grown for 72 hours in MRS broth at 30° C. under aerobic conditions. Cells were pelleted via centrifugation and the supernatant was removed. The pellet was resuspended in a buffer of 0.1M Tris-HCl (pH 6.5). This centrifugation and resuspension process was performed twice to ensure removal of all residual MRS. 15 μl of cell suspension was added to each well of a Biolog MT2 plate (Biolog Inc.). To this, 150 μl of 2% carbohydrate solutions were added to the wells, with each carbohydrate repeated in triplicate. Additionally, water control wells were established in triplicate, inoculated with cell suspension and filtered, autoclaved water. […] Plates were read via spectrophotometry at A590 immediately following inoculation in order to establish as baseline. Plates were incubated aerobically at 30° C., and A590 readings were taken every 24 hours. […] To assess whether a carbon source was utilized, absorbance readings from time points with peak absorbance were compared to absorbance of the initial time point. Absorbance in water control wells was subtracted from absorbance in carbohydrate containing wells. […] A carbon source was determined to have been utilized by Fructobacillus if the difference was statistically significant with a p-value of 0.001 or lower.

For the molecule `CN[C@H](CC(C)C)C(=O)N[C@H]1C(=O)N[C@@H](CC(N)=O)C(=O)N[C@H]2C(=O)N[C@H]3C(=O)N[C@H](C(=O)N[C@H](C(=O)O)c4cc(O)cc(O)c4-c4cc3ccc4O)[C@H](O)c3ccc(c(Cl)c3)Oc3cc2cc(c3O[C@@H]2O[C@H](CO)[C@@H](O)[C@H](O)[C@H]2O[C@H]2C[C@](C)(N)[C@H](O)[C@H](C)O2)Oc2ccc(cc2Cl)[C@H]1O` [Vancomycin], in the test with Fructobacillus sp., the “Zone of Inhibition” value stood at 0 mm and the “Interpretation (antibiotic sensitivity)” value is on record as “Resistant”. For `CO[C@H]1/C=C/O[C@@]2(C)Oc3c(C)c(O)c4c(O)c(c(/C=N/N5CCN(C)CC5)c(O)c4c3C2=O)NC(=O)/C(C)=C\C=C\[C@H](C)[C@H](O)[C@@H](C)[C@@H](O)[C@@H](C)[C@H](OC(C)=O)[C@@H]1C` [Rifampin], in the test on Fructobacillus sp., the “Zone of Inhibition” value came out at 25 mm and the “Interpretation (antibiotic sensitivity)” value is reported as “Susceptible”. For `O=C(O)c1cn(C2CC2)c2cc(N3CCNCC3)c(F)cc2c1=O` [Ciprofloxacin], in that order: 9 mm and “Resistant”.

In the case of `O=C(CO)[C@@H](O)[C@H](O)[C@H](O)CO` [fructose], in the test with Fructobacillus FJL, the “Utilization of carbon source by Fructobacillus” value is recorded as “capable of utilizing”.

`CN(C)[C@@H]1C(O)=C(C(N)=O)C(=O)[C@@]2(O)C(O)=C3C(=O)c4c(O)cccc4[C@@](C)(O)[C@H]3C[C@@H]12` [Tetracycline]: the “Zone of Inhibition” value in the test on Fructobacillus sp. is listed as 32 mm.
